According to patent US20080280837A1, “Biologically Active Compounds with Anti-Angiogenic Properties” (priority 2004, published 2008):

Molecular target: T1, Human SST5 somatostatin receptor (SSTR5) (Homo sapiens, UniProt P35346)
T1 construct: expressed in transfected cells; host or cells: HEK-293 EBNA
Assay: Filter plate assay for SST5 receptor, displacement of [125I]SST-14
Type: binding
How it was run: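 HEK-293 EBNA membranes expressing human SST5 (5.5 μg) incubated 60 min at 25 °C with 4 nM [125I]SST-14 and compound in pH 7.5 Tris/EGTA/MgCl2/sucrose buffer. Bound radioactivity collected on PEI-coated glass fiber filters and counted; triplicate 1:5 dilution series from 125 μM, non-specific binding with excess cold ligand.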

T1 sequence (P35346 whole entry): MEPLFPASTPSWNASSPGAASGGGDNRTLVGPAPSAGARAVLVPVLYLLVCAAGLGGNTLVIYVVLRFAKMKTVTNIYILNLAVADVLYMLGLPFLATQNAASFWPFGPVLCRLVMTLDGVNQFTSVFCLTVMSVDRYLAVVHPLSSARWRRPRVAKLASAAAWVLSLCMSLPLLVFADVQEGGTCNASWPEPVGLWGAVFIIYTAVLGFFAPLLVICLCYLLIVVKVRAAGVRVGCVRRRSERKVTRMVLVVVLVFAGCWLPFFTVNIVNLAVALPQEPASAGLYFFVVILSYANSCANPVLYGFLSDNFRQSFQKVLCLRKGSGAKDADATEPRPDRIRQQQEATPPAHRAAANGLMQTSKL

Row | Compound | SSTR5 Inhib 0.5 uM % (inhibition of binding of SST-14 to SSTR5) | SSTR5 Inhib 10 uM % (inhibition of binding of SST-14 to SSTR5)
1 | COC[C@H]1OC(OCc2ccc3ccccc3c2)[C@H](NC(=O)CCCN)[C@H](OCc2ccccc2)[C@@H]1O (stereo partly drawn) [Compound 92] | 52% | 86%
2 | CSC1O[C@H](COCc2ccc(Cl)cc2)[C@@H](O)[C@@H](OCc2ccc(-c3ccccc3)cc2)[C@H]1NC(=O)CNC(=N)N (stereo partly drawn) [Compound 111] | 36% | 83%
3 | COC[C@H]1OC(OCc2ccc3ccccc3c2)[C@H](NC(=O)CCCNC(=N)N)[C@@H](OCc2ccc(Cl)cc2)[C@@H]1O (stereo partly drawn) [Compound 103] | 48% | 84%
4 | COC[C@H]1OC(OCc2ccccc2)[C@H](NC(=O)CCCN)[C@@H](OCc2cccc(O)c2)[C@@H]1O (stereo partly drawn) [Compound 144] | 45% | 78%
5 | COC[C@H]1OC(OCc2ccc(-c3ccccc3)cc2)[C@H](NC(=O)CNC(=N)N)[C@@H](OCc2ccc(-c3ccccc3)cc2)[C@@H]1O (stereo partly drawn) [Compound 129] | 36% | 80%
6 | COC1C(O)C(COCc2ccc(-c3ccccc3)cc2)OC(OCc2ccc(Cl)cc2)C1NC(=O)CNC(=N)N (stereo not drawn) [Compound 177] | 47% | 71%
7 | CSC1O[C@H](COCc2ccc3ccccc3c2)[C@@H](O)[C@@H](OCc2ccc3ccccc3c2)[C@H]1NC(=O)CNC(=N)N (stereo partly drawn) [Compound 131] | 52% | 80%
8 | CO[C@@H]1[C@H](O)[C@@H](COCc2ccc3ccccc3c2)OC(OCc2ccc(Cl)cc2)[C@@H]1NC(=O)C1CCCN(C(=N)N)C1 (stereo partly drawn) [Compound 69] | 67% | 89%
9 | COC[C@H]1OC(OCc2ccc(Cl)cc2)[C@H](NC(=O)CCCNC(=N)N)[C@H](OCc2ccccc2)[C@@H]1O (stereo partly drawn) [Compound 176] | 37% | 71%
10 | COC[C@H]1OC(OCc2ccc3ccccc3c2)[C@H](NC(=O)CCCN)[C@@H](OCc2ccc(Cl)cc2)[C@@H]1O (stereo partly drawn) [Compound 61] | 61% | 90%
11 | CSC1O[C@H](COCc2ccc3ccccc3c2)[C@@H](O)[C@@H](OCc2ccc(-c3ccccc3)cc2)[C@H]1NC(=O)CN (stereo partly drawn) [Compound 97] | 41% | 85%
12 | COC[C@H]1OC(OCc2ccc(Cl)cc2)[C@H](NC(=O)CCCN)[C@H](OCc2ccc(-c3ccccc3)cc2)[C@@H]1O (stereo partly drawn) [Compound 27] | 74% | 96%
13 | COC[C@H]1OC(OCc2ccccc2)[C@H](NC(=O)CCNC(=N)N)[C@H](OCc2ccc3ccccc3c2)[C@@H]1O (stereo partly drawn) [Compound 53] | 58% | 91%
14 | COC[C@H]1OC(OCc2ccc(-c3ccccc3)cc2)[C@H](NC(=O)CCCNC(=N)N)[C@@H](OCc2ccc(Cl)cc2)[C@@H]1O (stereo partly drawn) [Compound 120] | 46% | 81%
15 | COC[C@H]1OC(OCc2ccc3ccccc3c2)[C@H](NC(=O)CCCN)[C@@H](OCc2ccc(Cl)cc2)[C@@H]1O (stereo partly drawn) [Compound 47] | 68% | 93%
16 | CSC1O[C@H](COCc2ccccc2)[C@@H](O)[C@@H](OCc2ccc(-c3ccccc3)cc2)[C@H]1NC(=O)CNC(=N)N (stereo partly drawn) [Compound 149] | 35% | 76%
17 | COC1C(O)C(COCc2ccc(Cl)cc2)OC(OCCc2ccccc2)C1NC(=O)CCCN (stereo not drawn) [Compound 141] | 36% | 78%
18 | COC[C@H]1OC(OCc2ccc3ccccc3c2)[C@H](NC(=O)CCNC(=N)N)[C@H](OCc2ccc(-c3ccccc3)cc2)[C@@H]1O (stereo partly drawn) [Compound 36] | 67% | 95%
19 | CSC1O[C@H](COCc2ccc(Cl)cc2)[C@@H](O)[C@@H](OCc2ccc3ccccc3c2)[C@H]1NC(=O)CNC(=N)N (stereo partly drawn) [Compound 150] | 42% | 76%
20 | COC[C@H]1OC(OCc2ccccc2)[C@H](NC(=O)CCCNC(=N)N)[C@@H](OCc2ccc(-c3ccccc3)cc2)[C@@H]1O (stereo partly drawn) [Compound 165] | 37% | 73%
21 | COC[C@H]1OC(OCc2ccccc2)[C@H](NC(=O)CCCNC(=N)N)[C@H](OCc2ccc(Cl)cc2)[C@@H]1O (stereo partly drawn) [Compound 138] | 39% | 79%
